Results as given in patent publication US9422285B2, “Substituted pyrazolo[1,5-A]-pyridine-3-carboxamides and use thereof” (Bayer Pharma Aktiengesellschaft, priority 2014, dated 2016).
Structures can show the parent of a compound that is named as a salt.

What follows are molecules tested against T1, recombinant guanylate cyclase reporter cell line (Rattus norvegicus, UniProt P19686+P20595) (assay: Effect on a recombinant guanylate cyclase reporter cell line (B-2)). Details: in some cases mean values for individual determinations.
T1 construct: expressed in transfected cells
T1 sequence (P19686 1-690): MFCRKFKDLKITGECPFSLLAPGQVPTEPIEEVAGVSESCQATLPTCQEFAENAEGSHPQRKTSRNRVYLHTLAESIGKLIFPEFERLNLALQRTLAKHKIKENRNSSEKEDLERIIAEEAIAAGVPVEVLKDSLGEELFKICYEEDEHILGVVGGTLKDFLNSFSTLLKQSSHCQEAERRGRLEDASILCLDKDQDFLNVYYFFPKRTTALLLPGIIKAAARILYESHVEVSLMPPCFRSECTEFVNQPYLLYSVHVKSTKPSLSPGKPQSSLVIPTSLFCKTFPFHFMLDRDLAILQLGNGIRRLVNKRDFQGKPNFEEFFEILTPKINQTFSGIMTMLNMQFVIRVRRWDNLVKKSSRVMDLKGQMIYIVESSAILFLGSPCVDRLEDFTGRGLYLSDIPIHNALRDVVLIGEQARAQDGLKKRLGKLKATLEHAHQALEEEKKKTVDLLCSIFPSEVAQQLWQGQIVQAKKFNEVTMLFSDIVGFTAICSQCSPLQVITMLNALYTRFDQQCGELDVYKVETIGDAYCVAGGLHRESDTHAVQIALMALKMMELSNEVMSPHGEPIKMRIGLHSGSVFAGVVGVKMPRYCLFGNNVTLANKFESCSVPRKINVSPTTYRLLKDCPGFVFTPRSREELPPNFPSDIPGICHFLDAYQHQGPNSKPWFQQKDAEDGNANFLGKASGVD
T1 sequence (P20595 1-619): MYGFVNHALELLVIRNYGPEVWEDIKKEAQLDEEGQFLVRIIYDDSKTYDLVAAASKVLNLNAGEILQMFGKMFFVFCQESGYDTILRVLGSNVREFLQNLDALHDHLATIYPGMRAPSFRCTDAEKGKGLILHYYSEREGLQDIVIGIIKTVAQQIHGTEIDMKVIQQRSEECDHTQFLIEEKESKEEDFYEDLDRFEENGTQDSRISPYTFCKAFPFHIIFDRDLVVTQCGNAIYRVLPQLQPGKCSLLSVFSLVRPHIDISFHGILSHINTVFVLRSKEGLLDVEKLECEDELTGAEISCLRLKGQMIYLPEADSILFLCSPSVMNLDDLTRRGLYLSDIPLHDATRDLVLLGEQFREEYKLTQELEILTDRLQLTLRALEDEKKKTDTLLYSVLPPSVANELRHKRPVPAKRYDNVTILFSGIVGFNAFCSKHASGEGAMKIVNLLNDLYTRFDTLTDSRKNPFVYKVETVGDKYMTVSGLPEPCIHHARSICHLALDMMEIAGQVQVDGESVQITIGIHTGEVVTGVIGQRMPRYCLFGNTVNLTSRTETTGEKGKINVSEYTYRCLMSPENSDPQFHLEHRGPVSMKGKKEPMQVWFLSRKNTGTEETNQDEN
Format: cell-based
Protocol: B-2. Effect on a Recombinant Guanylate Cyclase Reporter Cell Line
The cellular effect of the inventive compounds is determined using a recombinant guanylate cyclase reporter cell line, as described in F. Wunder et al., Anal. Biochem. 339, 104-112 (2005).
Representative MEC values (MEC=minimum effective concentration) for the inventive compounds are shown in the table below (in some cases as mean values for individual determinations): […]

Structure (SMILES)	MEC (minimum effective concentration)
Cc1cc(OCc2c(F)ccc(F)c2F)n2nc(C)c(C(=O)NCCN3CCOCC3)c2c1 [Example 15, 2,5-Dimethyl-N-[2-(morpholin-4-yl)ethyl]-7-[(2,3,6-trifluorobenzyl)oxy]pyrazolo[1,5-a]pyridine-3-carboxamide]	3.0 µM
Cc1cc(OCc2c(F)ccc(F)c2F)n2nc(C)c(C(=O)NC3CC4CCCC(C3)N4C)c2c1 (centres unmarked) [Example 29, 2,5-Dimethyl-N-(9-methyl-9-azabicyclo[3.3.1]non-3-yl)-7-[(2,3,6-trifluorobenzyl)oxy]pyrazolo[1,5-a]pyridine-3-carboxamide]	0.3 µM
Cc1cc(OCc2c(F)cccc2F)n2nc(C)c(C(=O)NCCS(N)(=O)=O)c2c1 [Example 61, 7-[(2,6-Difluorobenzyl)oxy]-2,5-dimethyl-N-(2-sulphamoylethyl)pyrazolo[1,5-a]pyridine-3-carboxamide]	10 µM
Cc1cc(OCc2c(F)cccc2F)n2nc(C)c(C(=O)NCC(N)c3cccc(C(F)(F)F)c3)c2c1 (racemic) [Example 105, rac-N-{2-Amino-2-[3-(trifluoromethyl)phenyl]ethyl}-7-[(2,6-difluorobenzyl)oxy]-2,5-dimethylpyrazolo[1,5-a]pyridine-3-carboxamide]	3.0 µM
Cc1cc(OCc2c(F)cccc2F)n2nc(C)c(C(=O)NCC(C)(N)CCCF)c2c1 (single isomer, unassigned) [Example 44, ent-N-(2-Amino-5-fluoro-2-methylpentyl)-7-[(2,6-difluorobenzyl)oxy]-2,5-dimethylpyrazolo[1,5-a]pyridine-3-carboxamide]	0.3 µM
Cc1cc(OCc2c(F)cccc2F)n2nc(C)c(C(=O)NC3COc4ccccc43)c2c1 (racemic) [Example 108, rac-7-[(2,6-Difluorobenzyl)oxy]-N-(2,3-dihydro-1-benzofur-3-yl)-2,5-dimethylpyrazolo[1,5-a]pyridine-3-carboxamide]	0.3 µM
Cc1cc(OCc2c(F)cccc2F)n2nc(C)c(C(=O)NCC(N)c3csc4ccccc34)c2c1 (racemic) [Example 112, rac-N-[2-Amino-2-(1-benzothiophen-3-yl)ethyl]-7-[(2,6-difluorobenzyl)oxy]-2,5-dimethylpyrazolo[1,5-a]pyridine-3-carboxamide]	10 µM
Cc1cc(OCc2c(F)cccc2F)n2nc(C)c(C(=O)NC3CC[C@@H]4NCC[C@H]34)c2c1 (relative stereo) [Example 122, rel-7-[(2,6-Difluorobenzyl)oxy]-2,5-dimethyl-N-[(3aR,6aR)-octahydrocyclopenta[b]pyrrol-4-yl]pyrazolo[1,5-a]pyridine-3-carboxamide]	10 µM
Cc1cc(OCc2c(F)cccc2F)n2nc(C)c(C(=O)N[C@@H]3COC[C@@H]3N)c2c1 (relative stereo) [Example 69, rel-N-[(3R,4S)-4-Aminotetrahydrofuran-3-yl]-7-[(2,6-difluorobenzyl)oxy]-2,5-dimethylpyrazolo[1,5-a]pyridine-3-carboxamide]	10 µM
Cc1cc(OCc2c(F)cccc2F)n2nc(C)c(C(=O)NNC(=O)CN(C)C)c2c1 [Example 67, 7-[(2,6-Difluorobenzyl)oxy]-N′-[(dimethylamino)acetyl]-2,5-dimethylpyrazolo[1,5-a]pyridine-3-carbohydrazide]	3.0 µM
Cc1cc(OCc2c(F)ccc(F)c2F)n2nc(C)c(C(=O)NCCN(C)C)c2c1 [Example 12, N-[2-(Dimethylamino)ethyl]-2,5-dimethyl-7-[(2,3,6-trifluorobenzyl)oxy]pyrazolo[1,5-a]pyridine-3-carboxamide]	3.0 µM
Cc1cc(OCc2c(F)cccc2F)n2nc(C)c(C(=O)NNc3ccc(F)cc3)c2c1 [Example 66, 7-[(2,6-Difluorobenzyl)oxy]-N′-(4-fluorophenyl)-2,5-dimethylpyrazolo[1,5-a]pyridine-3-carbohydrazide trifluoroacetate]	0.3 µM
Cc1cc(OCc2c(F)ccc(F)c2F)n2nc(C)c(C(=O)NCCN(CC(F)F)C3CC3)c2c1 [Example 26, N-{2-[Cyclopropyl(2,2-difluoroethyl)amino]ethyl]-2,5-dimethyl-7-[(2,3,6-trifluorobenzyl)oxy]pyrazolo[1,5-a]pyridine-3-carboxamide]	0.3 µM
Cc1cc(OCc2c(F)cccc2F)n2nc(C)c(C(=O)NCC(N)c3ccc4c(c3)OCCO4)c2c1 (racemic) [Example 110, rac-N-[2-Amino-2-(2,3-dihydro-1,4-benzodioxin-6-yl)ethyl]-7-[(2,6-difluorobenzyl)oxy]-2,5-dimethylpyrazolo[1,5-a]pyridine-3-carboxamide]	3.0 µM
Cc1cc(OCc2c(F)ccc(F)c2F)n2nc(C)c(C(=O)NC(C)COCC(F)(F)F)c2c1 (racemic) [Example 24, rac-2,5-Dimethyl-7-[(2,3,6-trifluorobenzyl)oxy]-N-[1-(2,2,2-trifluoroethoxy)propan-2-yl]pyrazolo[1,5-a]pyridine-3-carboxamide]	0.3 µM

Next, values leading:

MEC (minimum effective concentration)	Structure (SMILES)
1.0 µM	Cc1cc(OCc2c(F)cccc2F)n2nc(C)c(C(=O)N[C@H](CO)c3ccc(C)o3)c2c1 [Example 178, 7-[(2,6-Difluorobenzyl)oxy]-N-[(1R)-2-hydroxy-1-(5-methyl-2-furyl)ethyl]-2,5-dimethylpyrazolo[1,5-a]pyridine-3-carboxamide]
0.3 µM	Cc1cc(OCc2c(F)cccc2F)n2nc(C)c(C(=O)N[C@H]3c4ccccc4C[C@H]3CO)c2c1 (relative stereo) [Example 143, rel-7-[(2,6-Difluorobenzyl)oxy]-N-[(1R,2R)-2-(hydroxymethyl)-2,3-dihydro-1H-inden-1-yl]-2,5-dimethylpyrazolo[1,5-a]pyridine-3-carboxamide]
0.3 µM	Cc1cc(OCc2c(F)cccc2F)n2nc(C)c(C(=O)NC(C#N)c3ccc(Cl)cc3)c2c1 (racemic) [Example 134, rac-N-[(4-Chlorophenyl)(cyano)methyl]-7-[(2,6-difluorobenzyl)oxy]-2,5-dimethylpyrazolo[1,5-a]pyridine-3-carboxamide]
0.3 µM	Cc1cc(OCc2c(F)cccc2F)n2nc(C)c(C(=O)NC(CN)c3ccc(F)c(F)c3)c2c1 (stereo not drawn) [Example 133, ent-N-[2-Amino-1-(3,4-difluorophenyl)ethyl]-7-[(2,6-difluorobenzyl)oxy]-2,5-dimethylpyrazolo[1,5-a]pyridine-3-carboxamide]
3.0 µM	Cc1cc(OCc2c(F)cccc2F)n2nc(C)c(C(=O)Nc3ccc(N4CCNCC4)c(C(F)(F)F)c3)c2c1 [Example 125, 7-[(2,6-Difluorobenzyl)oxy]-2,5-dimethyl-N-[4-(piperazin-l-yl)-3-(trifluoromethyl)phenyl]pyrazolo[1,5-a]pyridine-3-carboxamide]
1.0 µM	Cc1cc(OCc2c(F)cccc2F)n2nc(C)c(C(=O)NC(CN)c3cccc(Br)c3)c2c1 (racemic) [Example 126, rac-N-[2-Amino-1-(3-bromphenyl)ethyl]-7-[(2,6-difluorobenzyl)oxy]-2,5-dimethylpyrazolo[1,5-a]pyridine-3-carboxamide]
10 µM	Cc1cc(OCc2c(F)cccc2F)n2nc(C)c(C(=O)N[C@@H](CO)c3nnc([C@@H](N)C(C)C)o3)c2c1 [Example 179, N-[(1S)-1-{5-[(1S)-1-Amino-2-methylpropyl]-1,3,4-oxadiazol-2-yl}-2-hydroxyethyl]-7-[(2,6-difluorobenzyl)oxy]-2,5-dimethylpyrazolo[1,5-a]pyridine-3-carboxamide]
1.0 µM	Cc1cc(OCc2c(F)cccc2F)n2nc(C)c(C(=O)NNC(=O)CN3CCCCC3)c2c1 [Example 174, 7-[(2,6-Difluorobenzyl)oxy]-2,5-dimethyl-N′-(piperidin-1-ylacetyl)pyrazolo[1,5-a]pyridine-3-carbohydrazide]
